Laboratory results as given in publication PMC7041945, “Misfolded proteins bind and activate death receptor 5 to trigger apoptosis during unresolved endoplasmic reticulum stress” (eLife, 2020).

What was measured:
[1] = tested on: CHOP, BiP, and DR5 mRNA in HCT116 cells; test: qPCR of UPR target transcripts (CHOP, BiP, DR5); type: cell-based, Homo sapiens; details: for avg. fold induction CHOP / avg. fold induction DR5 total / fold induction CHOP / fold induction DR5 total / 2^-(deltaCq) CHOP / 2^-(deltaCq) DR5 total / Cq CHOP / Cq DR5 total / Cq(sample) - avg Cq(GAPDH), CHOP / Cq(sample) - avg Cq(GAPDH), DR5 total: Rep 2; for avg. fold induction CHOP / avg. fold induction DR5 total / fold induction CHOP / fold induction DR5 total: relative to empty traffo; for avg. fold induction CHOP / avg. fold induction DR5 total: mean of 3 replicates
Procedure: Cells were grown in 6-well plates and harvested with 0.5 ml of TRIzol reagent (Life Technologies) per manufacturer’s protocol to extract RNA. For cDNA synthesis, 500 ng of total RNA was reverse transcribed with 2 μl of the SuperScript VILO master mix (Life Technologies # 11755050) in a total reaction volume of 10 μl following the manufacturer’s protocol for reaction temperature and duration. The reverse transcription product was diluted to 200 μl with 10 mM Tris-HCl pH 8.2 and used at 1:100 dilution for subsequent RT-PCR reactions.
PCR samples were prepared as described by manufacturer’s protocols from iQ SYBR Green Supermix (BioRad #17088800).
For each experiment, qRT-PCR reactions were set up in triplicate and run using a CFX96 Real Time System (Bio-Rad). Quantitation cycles were determined with CFX Manager 3.0 software (Bio-Rad) and then normalized to GAPDH as an internal control.

HCT116 cells = test: Annexin V (and SytoxBlue) flow cytometry for apoptosis; type: cell-based, Homo sapiens
Outline: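 HCT116 cells transfected with the specified plasmid for 24 hr, trypsinized and allowed 30 min recovery at 37°C. Stained with Annexin V-AlexaFluor 647 (1:20) for 15 min at RT in the dark; apoptotic cell distribution determined by flow cytometry.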

[2] = Compiled Reps INS RHO, average of 6 reps

INS-GFP: GFP-tagged proinsulin expressed from plasmid
avg. fold induction CHOP ([1]; 3 hr): 2.592
avg. fold induction DR5 total ([1]; 3 hr): 0.7038
fold induction CHOP ([1]; 3 hr, replicate 1): 2.854
fold induction DR5 total ([1]; 3 hr, replicate 1): 0.6229
fold induction CHOP ([1]; 3 hr, replicate 2): 2.329
fold induction DR5 total ([1]; 3 hr, replicate 2): 0.8572
fold induction CHOP ([1]; 3 hr, replicate 3): 2.592
fold induction DR5 total ([1]; 3 hr, replicate 3): 0.6314
2^-(deltaCq) CHOP ([1]; 3 hr, replicate 1): 0.03284
2^-(deltaCq) DR5 total ([1]; 3 hr, replicate 1): 0.01816
Cq CHOP ([1]; 3 hr, replicate 1): 24.0903
Cq DR5 total ([1]; 3 hr, replicate 1): 24.9448
Cq(sample) - avg Cq(GAPDH), CHOP ([1]; 3 hr, replicate 1): 4.928
Cq(sample) - avg Cq(GAPDH), DR5 total ([1]; 3 hr, replicate 1): 5.783
2^-(deltaCq) CHOP ([1]; 3 hr, replicate 2): 0.0268
2^-(deltaCq) DR5 total ([1]; 3 hr, replicate 2): 0.02499
Cq CHOP ([1]; 3 hr, replicate 2): 24.3837
Cq DR5 total ([1]; 3 hr, replicate 2): 24.4842
Cq(sample) - avg Cq(GAPDH), CHOP ([1]; 3 hr, replicate 2): 5.2218
Cq(sample) - avg Cq(GAPDH), DR5 total ([1]; 3 hr, replicate 2): 5.322
2^-(deltaCq) CHOP ([1]; 3 hr, replicate 3): 0.02982
2^-(deltaCq) DR5 total ([1]; 3 hr, replicate 3): 0.01841
Cq CHOP ([1]; 3 hr, replicate 3): 24.2295
Cq DR5 total ([1]; 3 hr, replicate 3): 24.9253
Cq(sample) - avg Cq(GAPDH), CHOP ([1]; 3 hr, replicate 3): 5.068
Cq(sample) - avg Cq(GAPDH), DR5 total ([1]; 3 hr, replicate 3): 5.763
avg. fold induction CHOP ([1]; 7 hr): 6.389
avg. fold induction DR5 total ([1]; 7 hr): 1.383
fold induction CHOP ([1]; 7 hr, replicate 1): 6.347
fold induction DR5 total ([1]; 7 hr, replicate 1): 1.604
fold induction CHOP ([1]; 7 hr, replicate 2): 6.646
fold induction DR5 total ([1]; 7 hr, replicate 2): 1.272
fold induction CHOP ([1]; 7 hr, replicate 3): 6.175
fold induction DR5 total ([1]; 7 hr, replicate 3): 1.275
2^-(deltaCq) CHOP ([1]; 7 hr, replicate 1): 0.07302
2^-(deltaCq) DR5 total ([1]; 7 hr, replicate 1): 0.04677
Cq CHOP ([1]; 7 hr, replicate 1): 23.0759
Cq DR5 total ([1]; 7 hr, replicate 1): 23.7188
Cq(sample) - avg Cq(GAPDH), CHOP ([1]; 7 hr, replicate 1): 3.776
Cq(sample) - avg Cq(GAPDH), DR5 total ([1]; 7 hr, replicate 1): 4.418
2^-(deltaCq) CHOP ([1]; 7 hr, replicate 2): 0.07646
2^-(deltaCq) DR5 total ([1]; 7 hr, replicate 2): 0.03708
Cq CHOP ([1]; 7 hr, replicate 2): 23.0096
Cq DR5 total ([1]; 7 hr, replicate 2): 24.0535
Cq(sample) - avg Cq(GAPDH), CHOP ([1]; 7 hr, replicate 2): 3.709
Cq(sample) - avg Cq(GAPDH), DR5 total ([1]; 7 hr, replicate 2): 4.753
2^-(deltaCq) CHOP ([1]; 7 hr, replicate 3): 0.07103
2^-(deltaCq) DR5 total ([1]; 7 hr, replicate 3): 0.03717
Cq CHOP ([1]; 7 hr, replicate 3): 23.1157
Cq DR5 total ([1]; 7 hr, replicate 3): 24.0502
Cq(sample) - avg Cq(GAPDH), CHOP ([1]; 7 hr, replicate 3): 3.815
Cq(sample) - avg Cq(GAPDH), DR5 total ([1]; 7 hr, replicate 3): 4.75
avg. fold induction CHOP ([1]; 24 hr): 5.115
avg. fold induction DR5 total ([1]; 24 hr): 1.535
fold induction CHOP ([1]; 24 hr, replicate 1): 6.073
fold induction DR5 total ([1]; 24 hr, replicate 1): 1.494
fold induction CHOP ([1]; 24 hr, replicate 2): 4.514
fold induction DR5 total ([1]; 24 hr, replicate 2): 1.718
fold induction CHOP ([1]; 24 hr, replicate 3): 4.759
fold induction DR5 total ([1]; 24 hr, replicate 3): 1.392
2^-(deltaCq) CHOP ([1]; 24 hr, replicate 1): 0.06987
2^-(deltaCq) DR5 total ([1]; 24 hr, replicate 1): 0.04358
Cq CHOP ([1]; 24 hr, replicate 1): 23.5439
Cq DR5 total ([1]; 24 hr, replicate 1): 24.225
Cq(sample) - avg Cq(GAPDH), CHOP ([1]; 24 hr, replicate 1): 3.839
Cq(sample) - avg Cq(GAPDH), DR5 total ([1]; 24 hr, replicate 1): 4.52
2^-(deltaCq) CHOP ([1]; 24 hr, replicate 2): 0.05193
2^-(deltaCq) DR5 total ([1]; 24 hr, replicate 2): 0.05009
Cq CHOP ([1]; 24 hr, replicate 2): 23.972
Cq DR5 total ([1]; 24 hr, replicate 2): 24.0239
Cq(sample) - avg Cq(GAPDH), CHOP ([1]; 24 hr, replicate 2): 4.267
Cq(sample) - avg Cq(GAPDH), DR5 total ([1]; 24 hr, replicate 2): 4.319
2^-(deltaCq) CHOP ([1]; 24 hr, replicate 3): 0.05475
2^-(deltaCq) DR5 total ([1]; 24 hr, replicate 3): 0.04058
Cq CHOP ([1]; 24 hr, replicate 3): 23.8955
Cq DR5 total ([1]; 24 hr, replicate 3): 24.3278
Cq(sample) - avg Cq(GAPDH), CHOP ([1]; 24 hr, replicate 3): 4.191
Cq(sample) - avg Cq(GAPDH), DR5 total ([1]; 24 hr, replicate 3): 4.623
BiP avg fold change relative to empty ([1]; Compiled Reps INS RHO, average of 3 reps): 1.818
CHOP avg fold change relative to empty [1, 2]: 4.114
DR5 avg fold change relative to empty [1, 2]: 1.533
GAPDH avg fold change relative to empty [1, 2]: 1.006
GFP construct avg fold change relative to empty [1, 2]: 92.5691
BiP fold change relative to empty ([1]; Compiled Reps INS RHO, rep 1): 1.621
CHOP fold change relative to empty ([1]; Compiled Reps INS RHO, rep 1): 3.15
DR5 fold change relative to empty ([1]; Compiled Reps INS RHO, rep 1): 1.705
GAPDH fold change relative to empty ([1]; Compiled Reps INS RHO, rep 1): 0.8468
GFP construct fold change relative to empty ([1]; Compiled Reps INS RHO, rep 1): 79.1961
BiP fold change relative to empty ([1]; Compiled Reps INS RHO, rep 2): 1.965
CHOP fold change relative to empty ([1]; Compiled Reps INS RHO, rep 2): 3.503
DR5 fold change relative to empty ([1]; Compiled Reps INS RHO, rep 2): 1.533
GAPDH fold change relative to empty ([1]; Compiled Reps INS RHO, rep 2): 1.093
GFP construct fold change relative to empty ([1]; Compiled Reps INS RHO, rep 2): 73.666
BiP fold change relative to empty ([1]; Compiled Reps INS RHO, rep 3): 1.867
CHOP fold change relative to empty ([1]; Compiled Reps INS RHO, rep 3): 2.685
DR5 fold change relative to empty ([1]; Compiled Reps INS RHO, rep 3): 1.358
GAPDH fold change relative to empty ([1]; Compiled Reps INS RHO, rep 3): 1.081
GFP construct fold change relative to empty ([1]; Compiled Reps INS RHO, rep 3): 131.33
CHOP fold change relative to empty ([1]; Compiled Reps INS RHO, rep 4): 6.073
DR5 fold change relative to empty ([1]; Compiled Reps INS RHO, rep 4): 1.494
GAPDH fold change relative to empty ([1]; Compiled Reps INS RHO, rep 4): 0.8281
GFP construct fold change relative to empty ([1]; Compiled Reps INS RHO, rep 4): 82.5431
CHOP fold change relative to empty ([1]; Compiled Reps INS RHO, rep 5): 4.514
DR5 fold change relative to empty ([1]; Compiled Reps INS RHO, rep 5): 1.718
GAPDH fold change relative to empty ([1]; Compiled Reps INS RHO, rep 5): 1.042
GFP construct fold change relative to empty ([1]; Compiled Reps INS RHO, rep 5): 92.9155
CHOP fold change relative to empty ([1]; Compiled Reps INS RHO, rep 6): 4.759
DR5 fold change relative to empty ([1]; Compiled Reps INS RHO, rep 6): 1.392
GAPDH fold change relative to empty ([1]; Compiled Reps INS RHO, rep 6): 1.149
GFP construct fold change relative to empty ([1]; Compiled Reps INS RHO, rep 6): 95.7639
UPR target gene transcription ([1]; HCT116, transfected 24 hr): upregulated BiP and CHOP mRNAs
PARP cleavage and annexin V staining (HCT116 cells; HCT116, transfected 24 hr, Nt or DR5 siRNA): induced PARP cleavage and annexin V staining in a DR5-dependent manner
Mean ± SEM (siDR5), Annexin V (HCT116 cells; siDR5, N=3): 19 ± 1.7 N=3
95% confidence interval of difference, Annexin V (HCT116 cells; siDR5 vs. siNt): -25 to -8.3
Difference between means, Annexin V (HCT116 cells; siDR5 vs. siNt): -17 ± 2.9
Mean ± SEM (siNt), Annexin V (HCT116 cells; siNt, N=3): 35 ± 2.4 N=3
